Where a SMILES comes first, the peptide text is derived from it. Bridges are numbered along the chain shown (N, C = ends). [ ]: non-standard residue; d: D form. The star is where a group is joined. hPhe(3-Cl-4-CF3) = N[C@@H](CCc1ccc(C(F)(F)F)c(Cl)c1)C(=O)O; NPrPhe(4-CF3) = CCCN[C@@H](Cc1ccc(C(F)(F)F)cc1)C(=O)O; Pip(4,4-F2) = O=C(O)[C@@H]1CC(F)(F)CCN1; NMeGly(cPent) = CN[C@H](C(=O)O)C1CCCC1; NMeD = CN[C@@H](CC(=O)O)C(=O)O; NMeL = CN[C@@H](CC(C)C)C(=O)O; Morpholide = C1CN(*)CCO1; Ac5c = NC1(C(=O)O)CCCC1; Aze = O=C(O)[C@@H]1CCN1; Sar = CNCC(=O)O
Key:
[1] = target: HRAS wild-type protein (Homo sapiens, UniProt P01112); assay: Binding to HRAS by surface plasmon resonance (SPR), KD and KD ratio to KRAS
HRAS wild-type protein, sequence (P01112 whole entry): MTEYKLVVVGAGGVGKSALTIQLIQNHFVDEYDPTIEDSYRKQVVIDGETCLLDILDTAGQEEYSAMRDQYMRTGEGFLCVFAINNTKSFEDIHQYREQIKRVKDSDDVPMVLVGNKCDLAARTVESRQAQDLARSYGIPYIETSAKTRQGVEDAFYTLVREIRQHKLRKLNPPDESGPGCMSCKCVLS
Outline: (§1)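 Each cycle, GDP-bound biotin-Avi RAS was captured (~100–300 RU), compound concentrations were injected low to high for 75 s each at 100 µL/min, then the chip was regenerated. Buffer: HBS pH 7.4, 10 mM MgCl2, 10 µM GDP, 1 mM DTT, 4% DMSO; 30°C. KD from a 1:1 binding model.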

[2] = target: GDP-bound NRAS wild-type protein (Homo sapiens, UniProt P01111); assay: Binding to NRAS by surface plasmon resonance (SPR), KD and KD ratio to KRAS
GDP-bound NRAS wild-type protein, sequence (P01111 whole entry): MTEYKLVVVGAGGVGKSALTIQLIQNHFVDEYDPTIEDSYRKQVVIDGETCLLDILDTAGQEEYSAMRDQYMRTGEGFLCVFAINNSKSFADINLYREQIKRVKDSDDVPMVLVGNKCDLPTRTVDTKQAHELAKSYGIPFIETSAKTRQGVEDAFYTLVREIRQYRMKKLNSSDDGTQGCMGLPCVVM
Outline: as §1

[3] = test system: human lung cancer strain NCI-H441; type: cell-based
Outline: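 Signal came from […] measured per well once the reagent was added. Beforehand, cells were cultured at 37°C and 5% carbon dioxide on a compound series serially diluted in dimethyl sulfoxide.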

[4] = ratio of the KD value with respect to HRAS wild-type protein to the KD value with respect to KRAS
[5] = ratio of the KD value with respect to GDP-bound NRAS wild-type protein to the KD value with respect to KRAS
[6] = ratio of KD for HRAS wild-type protein to KD for KRAS
[7] = ratio of KD for GDP-bound NRAS wild-type protein to KD for KRAS

IC50 [3] [nM]	Structure (SMILES)	HRAS /KRAS [1, 4]	NRAS /KRAS [2, 5]	HRAS /KRAS [1, 6]	NRAS /KRAS [2, 7]	HRAS /KRAS ([1]; ratio of KD value for HRAS wild-type protein to KD value for KRAS (SPR))	NRAS /KRAS ([2]; ratio of KD value for GDP-bound NRAS wild-type protein to KD value for KRAS (SPR))
3.5	C#CC[C@H]1C(=O)N[C@@H]([C@@H](C)CC)C(=O)N(C)CC(=O)N(C)[C@H]2C/C=C\CCN(C2=O)[C@@H](Cc2ccc(C(F)(F)F)cc2)C(=O)N(C)CC(=O)N[C@@H](CCc2cc(F)c(C(F)(F)F)c(F)c2)C(=O)N2C[C@H](OCC)C[C@H]2C(=O)NC2(CC(C)(C)C2)C(=O)N(C)[C@@H](C2CCCC2)C(=O)N(C)[C@H](C(=O)N(C)CC)CC(=O)N1C [PP2073]	A (a compound having 10 or more and less than 20 is denoted as A)	A (a compound having 10 or more and less than 20 is denoted as A)				
8.9	CCC[C@H]1C(=O)N[C@@H](C2CCCC2)C(=O)N(C)CC(=O)N(C)[C@H]2C/C=C\CCN(C2=O)[C@@H](Cc2ccc(C)cc2)C(=O)N(C)CC(=O)N[C@@H](CCc2cc(F)c(C(F)(F)F)c(F)c2)C(=O)N2CC3(CC3)C[C@H]2C(=O)NC2(CC(C)(C)C2)C(=O)N(C)[C@@H](C2CCCC2)C(=O)N(C)[C@H](C(=O)N(C)C)CC(=O)N1C [PP2990]			A (a compound having 10 or more and less than 20 is denoted as A)	A (a compound having 10 or more and less than 20 is denoted as A)		
82.4	CCCN1C(=O)CN(C)C(=O)[C@@H]2CCN2C(=O)[C@H]([C@@H](C)CC)NC(=O)[C@H](CC(C)C)N(C)C(=O)C[C@@H](C(=O)N2CCOCC2)N(C)C(=O)[C@H](C2CCCC2)N(C)C(=O)C2(CCCC2)NC(=O)[C@@H]2CC(F)(F)CCN2C(=O)[C@H](CCc2ccc(C(F)(F)F)c(Cl)c2)NC(=O)CN(C)C(=O)[C@@H]1Cc1ccc(C(F)(F)F)cc1 [PP0312] ([NMeL]I[Aze][Sar][NPrPhe(4-CF3)][Sar][hPhe(3-Cl-4-CF3)][Pip(4,4-F2)][Ac5c][NMeGly(cPent)][NMeD]-Morpholide; lactam N-11)			B (a compound having 3 or more and less than 10 is denoted as B)	B (a compound having 3 or more and less than 10 is denoted as B)		
18.4	CC[C@H](C)[C@@H]1NC(=O)[C@H](CC(C)C)N(C)C(=O)C[C@@H](C(=O)N2CCOCC2)N(C)C(=O)[C@H](C2CCC2)N(C)C(=O)C2(CCCC2)NC(=O)[C@@H]2CCCN2C(=O)[C@H](CCc2cc(F)c(C(F)(F)F)c(F)c2)NC(=O)CN(C)C(=O)[C@H](Cc2ccc(C(F)(F)F)cc2)N2CCCC[C@@H](C2=O)N(C)C(=O)CN(C)C1=O [PP0566]	B (a compound having 3 or more and less than 10 is denoted as B)	B (a compound having 3 or more and less than 10 is denoted as B)				
20.3	CCC[C@H]1C(=O)N[C@@H](C2CCCC2)C(=O)N(C)CC(=O)N(C)[C@H]2C/C=C\CCN(C2=O)[C@@H](Cc2ccc(C(F)(F)F)cc2)C(=O)N(C)CC(=O)N[C@@H](CCc2ccc(C(F)(F)F)c(Cl)c2)C(=O)N2CC3(CC3)C[C@H]2C(=O)NC2(CC(C)(C)C2)C(=O)N(C)[C@@H](CC(C)(C)C)C(=O)N(C)[C@H](C(=O)N(C)C)CC(=O)N1C [PP2981]			A (a compound having 10 or more and less than 20 is denoted as A)	AA (a compound having 20 or more is denoted as AA)		
16.7	CC[C@H](C)[C@@H]1NC(=O)[C@H](CC(C)C)N(C)C(=O)C[C@@H](C(=O)N2CCOCC2)N(C)C(=O)[C@H](C2CCCC2)N(C)C(=O)C2(CCC2)NC(=O)[C@]2(C)CCCN2C(=O)[C@H](CCc2cc(F)c(C(F)(F)F)c(F)c2)NC(=O)CN(C)C(=O)[C@H](Cc2ccc(C(F)(F)F)cc2)N2CCCC[C@@H](C2=O)N(C)C(=O)CN(C)C1=O [PP0808]			B (a compound having 3 or more and less than 10 is denoted as B)	B (a compound having 3 or more and less than 10 is denoted as B)		
2.7	C#CC[C@H]1C(=O)N[C@@H]([C@@H](C)CC)C(=O)N(C)CC(=O)N(C)[C@H]2C/C=C\CCN(C2=O)[C@@H](Cc2ccc(C(F)(F)F)cc2)C(=O)N(C)CC(=O)N[C@@H](CCc2cc(F)c(C(F)(F)F)c(F)c2)C(=O)N2C[C@H](OCC)C[C@H]2C(=O)NC2(CC(F)(F)C2)C(=O)N(C)[C@@H](C2CCCC2)C(=O)N(C)[C@H](C(=O)N(C)CCC)CC(=O)N1C [PP1737]					A (a compound having 10 or more and less than 20 is denoted as A)	A (a compound having 10 or more and less than 20 is denoted as A)
